{
  "source": "patent US20120083473A1",
  "about": "“TREATMENT OF CONDITIONS BY TOLL-LIKE RECEPTOR MODULATORS” (priority 2010, published 2012)",
  "key": {"[1]": {"test_system": "murine peritoneal macrophages (PEC)", "test": "Secretion of M1 and M2 gene products by TMX-tolerant PEC (ELISA)", "assay_type": "cell-based, mice", "method": "Based on the results of the gene expression analysis, performed by Real-Time PCR, selected gene products are validated at protein level, either by cytofluorimetry (surface molecules) or ELISA (secreted products).\nThe secretion of selected M1 and M2 gene products by TMX-tolerant murine peritoneal macrophages (PEC) was evaluated.\nCell Culture and treatments. Peritoneal exudate cells (PEC) were harvested from mice injected with 1 ml of 3% (w/v) thioglycollate medium (Difco, Detroit, Mich.) 4 days prior to isolation. PECs were incubated in RPMI 1640 medium, containing 10% fetal bovine serum, 2 mM glutamine and 100 U/ml of penicillin-streptomycin. The concentration for the different treatments were as follows: LPS (100 ng/ml) (Lipopolysaccharide from Salmonella Abortus Equi S-form, Alexis), CpG (1 μg/ml), Pam3CSK (2 μg/ml), Poly I:C (10 μg/ml), Loxorubine (100 μM), flagellin (100 ng/ml) IL-1β (20 ng/ml), TNF (20 ng/ml), IL-10 (20 ng/ml) (Peprotech), IFNγ (200 U/ml) (Peprotech). To induce TMX tolerance, cells were incubated in the presence of TMX (10 μM or 1 μM) for 20 hrs, washed and maintained in RPMI medium for 2 hrs and then re-challenged with TMX (10 μM) for 4 hrs. To induce TMX-tolerization (T/M) cells were treated with TMX for 20 hrs, washed and then maintained in medium for additional 6 hours, without TMX re-challenge. […]"}, "Stability of the API": {"test": "Stability of the API", "assay_type": "physicochemical", "details": "for stability of powder: preliminary", "method": "Compound 2 powder underwent preliminary stability testing at 25° C. for 6 months and 40° C. for three months. […] Aqueous solutions of Compound 2 (2 mg/ml) are stable up to 4 weeks at 37° C."}, "[2]": {"test_system": "Peritoneal macrophages (PEC)", "test": "Tolerance and M1/M2 gene expression in murine peritoneal macrophages (Real-Time PCR)", "assay_type": "cell-based, mice", "method": "Peritoneal macrophages (PEC) isolated from C57 black mice are used to test the tolerogenic effects of compound 2 of Table 2. The effects of this TLR7 ligand are analyzed in terms of gene expression (Real-Time PCR) of both pro-inflammatory (e.g. TNF-alpha, IL-1, IL-6) and anti-inflammatory (e.g. IL-10, TGF-beta) cytokines. Further, additional markers of M1 (e.g. iNOS, IL-12, IFN-beta, CXCL9, CXCL10) versus M2 (e.g. arginase I, Ym1, Fizz1, CCL17, CCL22, dectin 1, MGL) macrophage polarization is determined, in order to evaluate the polarizing activities of this compound. This analysis is instrumental to the understanding of mechanisms driving the tolerogenic action of compound 2 of Table 2, as an M2 polarized response is considered to be an alternative anti-inflammatory and “tolerogenic” macrophage program.\nWith respect to macrophage tolerance, cells are treated with two doses of compound 2 of Table 2 (1 microM and 10 microM) up to 20 hours and then re-challenged with agonists/ligands of different TLRs (TLR2, TLR4, TLR5, TLR9, TLR7, etc.), including the TLR7 unconjugated ligand 1V209 (free pharmacophore) at a concentration of 10 microM.\nIn a first run of experiments, the tolerogenic and polarizing ability of compound 2 of Table 2, which also is referred to hereafter as “TMX,” was evaluated. To induce tolerance, PEC were pre-treated for 20 hours with 10 μM or 1 μM TMX. Next, total RNA from control (M/M), TMX activated (M/T), 1V209 (free pharmacophore)-activated (M/I), tolerant (T/M) and tolerant PEC re-challenged with TMX (T/T) or with 1V209 (free pharmacophore) (T/I), were analyzed by RT PCR for the expression of representative M1 and M2 genes. […] However, most of the M1 genes transcripts were still induced (FIG. 1C, D).\n(§1) Cell Culture and treatments. Peritoneal exudate cells (PEC) were harvested from mice injected with 1 ml of 3% (w/v) thioglycollate medium (Difco, Detroit, Mich.) 4 days prior to isolation. PECs were incubated in RPMI 1640 medium, containing 10% fetal bovine serum, 2 mM glutamine and 100 U/ml of penicillin-streptomycin. The concentration for the different treatments were as follows: LPS (100 ng/ml) (Lipopolysaccharide from Salmonella Abortus Equi S-form, Alexis), CpG (1 μg/ml), Pam3CSK (2 μg/ml), Poly I:C (10 μg/ml), Loxorubine (100 μM), flagellin (100 ng/ml) IL-1β (20 ng/ml), TNF (20 ng/ml), IL-10 (20 ng/ml) (Peprotech), IFNγ (200 U/ml) (Peprotech). To induce TMX tolerance, cells were incubated in the presence of TMX (10 μM or 1 μM) for 20 hrs, washed and maintained in RPMI medium for 2 hrs and then re-challenged with TMX (10 μM) for 4 hrs. To induce TMX-tolerization (T/M) cells were treated with TMX for 20 hrs, washed and then maintained in medium for additional 6 hours, without TMX re-challenge. To induce M1-activation, cells were incubated in medium for 20 hrs, washed, left in medium for 2 hrs and finally stimulated with TMX (10 μM) for 4 hrs. Control cells (M/M) were cultured in medium for the entire period of the experiment. For gene expression analysis, total RNA was extracted from TMX treated and untreated cells with trizol (Invitrogen), according to the manufacturer's instructions. To analyze cytokines and chemokines production supernatants were collected 24 hrs after the second challenge with TMX.\n(§2) Real-Time PCR. Total RNA was purified as previously described. Briefly, reverse transcription from 1 μg of RNA was performed using cDNA Archive kit (Applied Biosystem, NJ, USA). Real time PCR was performed using Power Syber Green PCR Master Mix (Applied Biosystem, NJ, USA) and detected by 7900HT Fast Real-Time System (Applied Biosystem, NJ, USA). Data were processed using the SDS2.2.2 software (Applied Biosystem, NJ, USA). Results were normalized to the expression of the housekeeping gene β-actin and then expressed as folds of upregulation, with respect to the control cell population."}, "[3]": {"test_system": "murine peritoneal macrophages (PEC)", "test": "Dose-response of M1 and M2 gene expression in PEC (RT PCR)", "assay_type": "cell-based, mice", "method": "A third group of experiments was performed to investigate the dose-response effects of TMX, its potency as compared to classical inflammatory signals (e.g. LPS) and the activation of selected transcription factors playing an established role in tolerance, as well as in the induction of M1/M2 polarized inflammatory programs. PECs treated for 4 hours or 20 hours with 100 ng/mlof LPS or increased concentrations of TMX or 1V209 were analyzed by RT PCR for the expression of representative M1 (TNFα, IL-12p40) and M2 (IL-10, TGFβ) genes. […] In this experiment, as compared to 1V209, TMX is a lower inducer of M1 genes expression.\nas §1, §2"}, "[4]": {"details": "PEC pre-treated 20 hours with 10 μM TMX, RT PCR"}},
  "data": [
    {"smiles": "COCCOc1nc(N)c2nc(O)n(Cc3ccc(C(=O)NCCOCCOCCOCCOCCOCCOCCn4cc(CCC(=O)O)nn4)cc3)c2n1", "note": "[Compound 2]", "values": [
      {"measurement": "IL-1p and IL-6 in the supernatant of TMX-tolerant macrophages", "setting": "[1]; ELISA", "value": "increased levels"},
      {"measurement": "state of tolerance: M1 and M2 cytokines production", "setting": "[1]; only 10 microM TMX, ELISA of supernatants", "value": "low M1 and high M2 cytokines production"},
      {"measurement": "stability of powder", "setting": "Stability of the API; 25° C. for 6 months", "value": "no degradation or impurity profile changes"},
      {"measurement": "stability of powder", "setting": "Stability of the API; 40° C. for three months", "value": "no degradation or impurity profile changes"},
      {"measurement": "time aqueous solutions are stable", "setting": "Stability of the API; aqueous solutions 2 mg/ml, 37° C.", "value": "up to 4 weeks"},
      {"measurement": "M2 gene expression", "setting": "[2]; 1 μM TMX pre-treatment, except for IL-10", "value": "did not enhance"},
      {"measurement": "M1 (TNF-alpha, IL-12, IFN-beta, CXCL10) gene expression in state of tolerance", "setting": "[2]; [4]", "value": "low"},
      {"measurement": "selected M2 genes (IL-10, TGFβ, Arg I, CCL17, CCL22) in state of tolerance", "setting": "[2]; [4]", "value": "high levels"},
      {"measurement": "M2 markers Ym1, Fizz1, MGL2 gene transcripts", "setting": "[2]; PEC, TMX", "value": "No significant modulation"},
      {"measurement": "induction of tolerance", "setting": "[2]; pre-treatment with 1 μM TMX, except for IL-12p40", "value": "unable to induce tolerance"},
      {"measurement": "macrophage activation", "setting": "[2]; prolonged exposure of PEC to high concentration of TMX", "value": "M2 skewed activation"},
      {"measurement": "most potent dose tested for the induction of both M1 and M2 genes", "setting": "[3]; PEC", "value": 30, "unit": "µM"},
      {"measurement": "induction of both M1 and M2 gene expression", "setting": "[3]; PECs treated 4 hours or 20 hours with increased concentrations", "value": "dose-dependent induction"},
      {"measurement": "induction of M1 genes expression as compared to 1V209", "setting": "[3]; PECs, 4 or 20 hours", "value": "lower inducer"}
    ]}
  ]
}
